Biological target: human P2X7 receptor (Homo sapiens, UniProt Q99572, R270H/Y155H)
Test: Evaluation of human P2X7 receptor inhibitory activity (Yo-Pro uptake, BzATP stimulation, FLIPR TETRA)
Format: cell-based
Settings: 1321N1 cells stably expressing human P2X7 receptor; BzATP stimulation, Yo-Pro uptake; read-out: IC50 (antagonistic activity for the human P2X7 receptor)
Description: Stably expressing cell line (1321N1 cell transfected with the human P2X7 receptor gene (GenBank accession number NM_002562.5 including T606C and G952A SNP)) was used. The cells were seeded in a 384-well microtiter plate at a concentration of 8000 cells/well and cultured in the medium (10% fetal bovine serum, 25 mM HEPES, 1% penicillin and streptomycin in DMEM) for one day at 37° C. under 5% carbon dioxide atmosphere. After replacing with 20 μL of the HBSS buffer (20 mM HEPES, 55.6 mM D-glucose, 1×HBSS(−), pH7.4-7.5), 15 μL of 17.3 μM Yo-Pro solution in the HBSS buffer was added. The plate was placed in high-throughput cellular screening system FLIPR TETRA (Molecullar Devices, LLC.) and 15 μL of 130 μM BzATP solution in the HBSS buffer was added. Measurement of fluorescence intensity by FLIPR TETRA was started. After eight minutes, 15 μL of DMSO solutions containing different concentrations of the compound of the present invention as prepared by dilution with the HBSS buffer were dispensed to each well through the built-in automatic dispenser, and the measurement of fluorescence intensity was continued for 20 minutes. […] Changing values of fluorescence intensity by the compound of the present invention were calculated by difference between maximum and minimum fluorescence intensity for 20 minutes. Inhibition ratios (%) were calculated from the following equation:
[formula] IC50 was calculated using logistic approximation.

First: COc1cn(Cc2ccccc2)c(Nc2cccc3sccc23)nc1=O [Compound I-0104]
Second: COc1cn(Cc2ccccc2)c(Nc2cccc3c2CCO3)nc1=O [Compound I-0120]
The IC50 of the first is 16-fold lower: 41 nM for the first, 670 nM for the second.

Compared with COc1cn(Cc2ccccc2)c(NCc2cccc(Cl)c2C)nc1=O [Compound I-0121], Cc1c(Cl)cccc1Nc1nc(=O)c(OCc2ccccc2)cn1Cc1ccccc1 [Compound I-0149] is 11-fold lower in IC50: 280 nM for the first, 26 nM for the second.

Same assay, conditions: 1321N1 cells stably expressing human P2X7 receptor; BzATP stimulation, Yo-Pro uptake; read-out: IC50 (antagonistic activity for the human P2X7 receptor), class symbol

First: COc1cn(Cc2ccccc2)c(Nc2cccc(C(F)(F)F)c2C)nc1=O [Compound I-0085]
Second: COc1cn(Cc2ccccc2)c(Nc2ccccc2C(F)(F)F)nc1=O [Compound I-0089]
The IC50 of the first is lower: 10 to 100 nM for the first, 500 to 1000 nM for the second. The first is the more potent here.

First: COC(=O)c1cccc(Nc2nc(=O)c(OC)cn2Cc2ccccc2)c1C [Compound I-0088]
Second: COc1cn(Cc2ccccc2)c(Nc2cccc(C)c2C)nc1=O [Compound I-0095]
The IC50 of the first is higher: 100 to 500 nM for the first, 10 to 100 nM for the second. The second is the more potent here.

COc1cn(Cc2ccccc2)c(Nc2cc(F)ccc2C)nc1=O [Compound I-0090] and COc1cn(Cc2ccccc2)c(Nc2cc(Cl)ccc2C)nc1=O [Compound I-0092] fall in the same range of IC50: 100 to 500 nM for the first, 100 to 500 nM for the second.

COc1cn(Cc2ccccc2)c(Nc2cccc(-n3cccc3)c2C)nc1=O [Compound I-0091] and COc1cn(Cc2ccccc2)c(Nc2cccc(CO)c2C)nc1=O [Compound I-0110] fall in the same range of IC50: 100 to 500 nM for the first, 100 to 500 nM for the second.

First: COc1cn(Cc2ccccc2)c(Nc2cccc(OC(F)F)c2C)nc1=O [Compound I-0093]
Second: COc1cn(Cc2ccccc2)c(Nc2cccc(OC(F)F)c2Cl)nc1=O [Compound I-0133]
The IC50 of the first is lower: 10 to 100 nM for the first, 100 to 500 nM for the second. The first is the more potent here.

First: COc1cn(Cc2ccccc2)c(Nc2cccc(Cl)c2Cl)nc1=O [Compound I-0096]
Second: COc1cn(Cc2ccccc2)c(Nc2ccc(Cl)c(Cl)c2Cl)nc1=O [Compound I-0132]
The IC50 of the first is lower: 10 to 100 nM for the first, 100 to 500 nM for the second.

First: COc1cn(Cc2ccccc2)c(Nc2cc(C(F)(F)F)ccc2C)nc1=O [Compound I-0097]
Second: COc1cn(Cc2ccccc2)c(Nc2cc(C(C)C)ccc2C)nc1=O [Compound I-0143]
The IC50 of the first is higher: 100 to 500 nM for the first, 10 to 100 nM for the second.

First: Cc1c(Cl)cccc1Nc1nc(=O)c(C(=O)NCC(F)(F)F)cn1Cc1ccccc1 [Compound I-0098]
Second: Cc1c(Cl)cccc1Nc1nc(=O)c(C(=O)N(C)C)cn1Cc1ccccc1 [Compound I-0100]
The IC50 of the first is higher: 500 to 1000 nM for the first, 100 to 500 nM for the second.

First: COc1cn(CCCc2ccccc2)c(Nc2cccc(Cl)c2C)nc1=O [Compound I-0099]
Second: CCOc1cn(Cc2ccccc2)c(Nc2cccc(Cl)c2C)nc1=O [Compound I-0137]
The IC50 of the first is higher: 100 to 500 nM for the first, 10 to 100 nM for the second.

CCc1cc(Br)ccc1Nc1nc(=O)c(OC)cn1Cc1ccccc1 [Compound I-0101] and CCc1cc(Cl)ccc1Nc1nc(=O)c(OC)cn1Cc1ccccc1 [Compound I-0161] fall in the same range of IC50: 10 to 100 nM for the first, 10 to 100 nM for the second.

First: COc1cn(Cc2ccccc2)c(NCc2ccccc2C)nc1=O [Compound I-0102]
Second: COc1ccccc1CNc1nc(=O)c(OC)cn1Cc1ccccc1 [Compound I-0113]
The IC50 of the first is lower: 100 to 500 nM for the first, 500 to 1000 nM for the second. The first is the more potent here.

Compared with COc1cn(Cc2ccccc2)c(Nc2cccc3occc23)nc1=O [Compound I-0103], COc1cn(Cc2ccccc2)c(Nc2cccc3c2ccn3C)nc1=O [Compound I-0117] is lower in IC50: 100 to 500 nM for the first, 10 to 100 nM for the second.

CCc1ccccc1Nc1nc(=O)c(Cl)cn1Cc1ccccc1 [Compound I-0105] and CCc1ccccc1Nc1nc(=O)c(Br)cn1Cc1ccccc1 [Compound I-0107] fall in the same range of IC50: 100 to 500 nM for the first, 100 to 500 nM for the second.

COc1cn(Cc2ccccc2)c(Nc2ccc(C)cc2C)nc1=O [Compound I-0106] and COc1ccc(Nc2nc(=O)c(OC)cn2Cc2ccccc2)c(C)c1 [Compound I-0147] fall in the same range of IC50: 10 to 100 nM for the first, 10 to 100 nM for the second.

Cc1cccc(Nc2nc(=O)c(Br)cn2Cc2ccccc2)c1C [Compound I-0108] and Cc1cccc(Nc2nc(=O)c(F)cn2Cc2ccccc2)c1C [Compound I-0128] fall in the same range of IC50: 10 to 100 nM for the first, 10 to 100 nM for the second.

Compared with CCCc1ccccc1Nc1nc(=O)c(OC)cn1Cc1ccccc1 [Compound I-0109], CCc1cccc(Nc2nc(=O)c(OC)cn2Cc2ccccc2)c1CC [Compound I-0136] is lower in IC50: 500 to 1000 nM for the first, < 10 nM for the second.

First: Cc1c(Cl)cccc1Nc1nc(=O)c(C(=O)OC(C)(C)C)cn1Cc1ccccc1 [Compound I-0111]
Second: Cc1c(Cl)cccc1Nc1nc(=O)c(OC(C)C)cn1Cc1ccccc1 [Compound I-0142]
The IC50 of the first is higher: 100 to 500 nM for the first, 10 to 100 nM for the second.

Cc1cccc(Nc2nc(=O)c(C(=O)O)cn2Cc2ccccc2)c1Cl [Compound I-0112] and Cc1cccc(Nc2nc(=O)c(Cl)cn2Cc2ccccc2)c1C [Compound I-0158] fall in the same range of IC50: 10 to 100 nM for the first, 10 to 100 nM for the second.

CCc1ccccc1CNc1nc(=O)c(OC)cn1Cc1ccccc1 [Compound I-0114] and COc1cn(Cc2ccccc2)c(NCc2c(C)cccc2C)nc1=O [Compound I-0131] fall in the same range of IC50: 100 to 500 nM for the first, 100 to 500 nM for the second.

First: COc1cccc(Nc2nc(=O)c(OC)cn2Cc2ccccc2)c1Cl [Compound I-0115]
Second: COc1c(C)cccc1Nc1nc(=O)c(OC)cn1Cc1ccccc1 [Compound I-0130]
The IC50 of the first is lower: 10 to 100 nM for the first, 100 to 500 nM for the second.

CCc1cc2c(cc1Nc1nc(=O)c(OC)cn1Cc1ccccc1)CCC2 [Compound I-0116] and CCc1cc2c(cc1Nc1nc(=O)c(OC)cn1Cc1cccc(Cl)c1)CCC2 [Compound I-0164] cannot be ordered by IC50: < 10 nM for the first, < 10 nM for the second.

Compared with COc1cn(Cc2ccccc2)c(Nc2ccccc2Cc2ccccc2)nc1=O [Compound I-0118], COc1cn(Cc2ccccc2)c(Nc2cccc(Oc3ccccc3)c2C)nc1=O [Compound I-0138] is higher in IC50: 10 to 100 nM for the first, 500 to 1000 nM for the second. The first is the more potent here.

COc1cn(Cc2ccccc2)c(Nc2cc(C)c(C)cc2C)nc1=O [Compound I-0124] and COc1cn(Cc2cccc(Cl)c2)c(Nc2cc(C)c(C)cc2C)nc1=O [Compound I-0165] cannot be ordered by IC50: < 10 nM for the first, < 10 nM for the second.

COc1cn(Cc2ccccc2Cl)c(Nc2cccc(Cl)c2C)nc1=O [Compound I-0125] and COc1cn(Cc2cccc(Cl)c2)c(Nc2cccc(Cl)c2C)nc1=O [Compound I-0126] fall in the same range of IC50: 10 to 100 nM for the first, 10 to 100 nM for the second.

First: COc1cn(Cc2ccc(Cl)cc2)c(Nc2cccc(Cl)c2C)nc1=O [Compound I-0127]
Second: COc1cn(Cc2ccc(F)c(Cl)c2)c(Nc2cccc(Cl)c2C)nc1=O [Compound I-0166]
The IC50 of the first is higher: 10 to 100 nM for the first, < 10 nM for the second. The second is the more potent here.

First: COc1cn(Cc2ccccc2)c(Nc2cccc(OC(C)C)c2C)nc1=O [Compound I-0129]
Second: COc1cn(Cc2ccccc2)c(Nc2cccc3[nH]c(C)cc23)nc1=O [Compound I-0134]
The IC50 of the first is higher: 100 to 500 nM for the first, 10 to 100 nM for the second. The second is the more potent here.

First: Cc1cccc(Nc2nc(=O)c(F)cn2Cc2ccc(F)cc2)c1C [Compound I-0139]
Second: COc1cn(Cc2ccc(F)cc2)c(Nc2cccc(C)c2C)nc1=O [Compound I-0141]
The IC50 of the first is lower: < 10 nM for the first, 10 to 100 nM for the second. The first is the more potent here.

CCc1ccccc1Nc1nc(=O)c(F)cn1Cc1ccc(F)cc1 [Compound I-0140] and CCc1ccccc1Nc1nc(=O)c(F)cn1Cc1ccccc1 [Compound I-0157] fall in the same range of IC50: 10 to 100 nM for the first, 10 to 100 nM for the second.

First: COc1cn(Cc2ccccc2)c(Nc2cc(Br)ccc2Cl)nc1=O [Compound I-0144]
Second: COc1cn(Cc2ccccc2)c(Nc2cc(C)ccc2Cl)nc1=O [Compound I-0146]
The IC50 of the first is higher: 100 to 500 nM for the first, 10 to 100 nM for the second. The second is the more potent here.

Compared with COc1cn(Cc2ccccc2)c(Nc2cc(Cl)cc(Cl)c2Cl)nc1=O [Compound I-0145], COc1cn(Cc2ccccc2)c(Nc2cc(Cl)c(Cl)cc2Cl)nc1=O [Compound I-0154] is higher in IC50: 10 to 100 nM for the first, 100 to 500 nM for the second. The first is the more potent here.

Cc1ccc(N2CCCS2(=O)=O)cc1Nc1nc(=O)c(F)cn1Cc1ccccc1 [Compound I-0148] and Cc1cccc(C)c1Nc1nc(=O)c(F)cn1Cc1ccccc1 [Compound I-0153] fall in the same range of IC50: 10 to 100 nM for the first, 10 to 100 nM for the second.

First: COC(=O)c1ccc(C)c(Nc2nc(=O)c(OC)cn2Cc2ccccc2)c1 [Compound I-0150]
Second: COc1cn(Cc2ccccc2)c(Nc2cc([N+](=O)[O-])ccc2C)nc1=O [Compound I-0155]
The IC50 of the first is lower: 100 to 500 nM for the first, 500 to 1000 nM for the second. The first is the more potent here.

COc1ccc(Cl)c(Nc2nc(=O)c(OC)cn2Cc2ccccc2)c1 [Compound I-0152] and COc1cn(Cc2ccccc2)c(Nc2cc(O)ccc2Cl)nc1=O [Compound I-0156] fall in the same range of IC50: 100 to 500 nM for the first, 100 to 500 nM for the second.

COc1cn(Cc2ccc(F)cc2)c(Nc2cc(C)c(C)cc2C)nc1=O [Compound I-0162] and COc1cn(Cc2ccc(F)cc2)c(Nc2cc(C)c(Cl)cc2C)nc1=O [Compound I-0169] cannot be ordered by IC50: < 10 nM for the first, < 10 nM for the second.

First: CCc1cc2c(cc1Nc1nc(=O)c(OC)cn1Cc1ccc(F)cc1)CCC2 [Compound I-0163]
Second: COc1cn(Cc2ccc(Cl)cc2)c(Nc2cc(C)c(Cl)cc2C)nc1=O [Compound I-0171]
The IC50 of the first is lower: < 10 nM for the first, 10 to 100 nM for the second.

Compared with COc1cn(Cc2ccccc2F)c(Nc2cc(C)c(Cl)cc2C)nc1=O [Compound I-0167], COc1cn(Cc2ccccc2Cl)c(Nc2cc(C)c(Cl)cc2C)nc1=O [Compound I-0170] is higher in IC50: 10 to 100 nM for the first, 100 to 500 nM for the second.

First: COc1cn(Cc2cccc(F)c2)c(Nc2cc(C)c(Cl)cc2C)nc1=O [Compound I-0168]
Second: COc1cn(Cc2cccc(Cl)c2)c(Nc2cc(C)c(Cl)cc2C)nc1=O [Compound I-0172]
The IC50 of the first is lower: < 10 nM for the first, 10 to 100 nM for the second.

With COc1cn(Cc2ccccc2)c(N[C@@H]2CCCc3ccccc32)nc1=O [Compound I-0173] the IC50 was 100 to 500 nM.

From patent publication US10774051B2, “6-membered heterocyclic derivatives and pharmaceutical composition comprising the same” (Shionogi & Co., Ltd., priority 2015, dated 2020)
